Tests used:
5-lipoxygenase (5-LO) = target: T1, 5-lipoxygenase (5-LO) (Homo sapiens, UniProt P09917); experiment: Inhibition of 5-lipoxygenase: LTB4 formation in human granulocytes stimulated with calcium ionophore A 23187, ELISA; type: cell-based; settings: A 23187, LTB4 ELISA
T1 construct: The source used for the 5-lipoxygenase is human granulocytes; endogenous in cells; host or cells: human granulocytes isolated from heparinised blood
T1 sequence (P09917 1-674): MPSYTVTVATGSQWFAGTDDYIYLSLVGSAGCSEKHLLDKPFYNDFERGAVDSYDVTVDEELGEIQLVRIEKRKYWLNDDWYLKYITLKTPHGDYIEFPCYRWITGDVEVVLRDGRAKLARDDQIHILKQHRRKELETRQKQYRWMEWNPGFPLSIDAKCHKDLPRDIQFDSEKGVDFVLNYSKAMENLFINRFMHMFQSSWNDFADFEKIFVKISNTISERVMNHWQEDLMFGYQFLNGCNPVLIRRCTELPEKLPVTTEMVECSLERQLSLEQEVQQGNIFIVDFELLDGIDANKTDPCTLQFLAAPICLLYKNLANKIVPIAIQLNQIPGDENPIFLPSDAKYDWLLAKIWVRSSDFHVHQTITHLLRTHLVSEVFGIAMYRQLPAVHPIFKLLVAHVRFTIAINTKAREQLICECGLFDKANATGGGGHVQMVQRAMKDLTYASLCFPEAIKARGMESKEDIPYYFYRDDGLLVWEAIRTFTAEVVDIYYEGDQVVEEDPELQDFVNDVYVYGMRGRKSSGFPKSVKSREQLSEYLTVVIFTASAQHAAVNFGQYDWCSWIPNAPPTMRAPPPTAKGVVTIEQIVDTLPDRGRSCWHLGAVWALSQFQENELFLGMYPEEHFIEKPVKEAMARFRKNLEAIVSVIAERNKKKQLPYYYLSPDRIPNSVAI
Experimental: Test System for Determining the Inhibition of 5-lipoxygenase (5-LO)
The source used for the 5-lipoxygenase is human granulocytes. By stimulation with calcium ionophore A 23187, LTB4 (leukotriene B4) is formed from endogenous arachidonic acid. The granulocytes are isolated and the enzyme reaction is carried out according to known processes (see Arch. Pharm. Pharm. Med. Chem. 330, 307-312 (1997)).
The blood protected from clotting by heparin is centrifuged on a discontinuous Percoll® gradient and the granulocyte layer is removed by pipette. After lysis of the erythrocytes, the granulocytes are washed a number of times and then adjusted to a specific cell count. The enzyme reaction is then started in the presence or absence of the test substance after addition of Ca^2+ using calcium ionophore A 23187. The synthesis of the leukotrienes is stopped after 1.5 minutes. The samples are centrifuged off and the supernatant is diluted. LTB4 is determined quantitatively by means of ELISA.

Cyclooxygenase-1 (COX-1) = target: T2, Cyclooxygenase-1 (COX-1) (Homo sapiens, UniProt P23219); experiment: Inhibition of cyclooxygenase-1: prostaglandin E2 formed by human platelets after calcium ionophore, ELISA; type: cell-based; settings: PGE2 ELISA
T2 construct: endogenous in cells; host or cells: human platelets
Experimental: Test System for Determining the Inhibition of Cyclooxygenase-1 (COX-1)
In this test system, the amount of prostaglandin E2 formed by human platelets after addition of calcium ionophore is determined by means of ELISA. The platelets are obtained here after centrifugation on a discontinuous Percoll® gradient. The enzyme reaction and the determination of the metabolites formed are in principle carried out as in the determination of the inhibition of 5-lipoxygenase. Differences exist with respect to the incubation time. Furthermore, the addition of a thromboxane synthase inhibitor is necessary (see Arch. Pharm. Pharm. Med. Chem. 330, 307-312 (1997)).

Cyclooxygenase-2 (COX-2) = target: T3, Cyclooxygenase-2 (COX-2) (Ovis aries, UniProt P79208); experiment: Inhibition of cyclooxygenase-2: COX-2 from sheep placenta, arachidonic acid, PGE2 by ELISA; type: biochemical; settings: arachidonic acid 5 μm
T3 construct: COX-2 (from sheep placenta) is preincubated with test substance for 10 min at 4° C; from tissue; host or cells: sheep placenta
T3 sequence (P79208 17-603): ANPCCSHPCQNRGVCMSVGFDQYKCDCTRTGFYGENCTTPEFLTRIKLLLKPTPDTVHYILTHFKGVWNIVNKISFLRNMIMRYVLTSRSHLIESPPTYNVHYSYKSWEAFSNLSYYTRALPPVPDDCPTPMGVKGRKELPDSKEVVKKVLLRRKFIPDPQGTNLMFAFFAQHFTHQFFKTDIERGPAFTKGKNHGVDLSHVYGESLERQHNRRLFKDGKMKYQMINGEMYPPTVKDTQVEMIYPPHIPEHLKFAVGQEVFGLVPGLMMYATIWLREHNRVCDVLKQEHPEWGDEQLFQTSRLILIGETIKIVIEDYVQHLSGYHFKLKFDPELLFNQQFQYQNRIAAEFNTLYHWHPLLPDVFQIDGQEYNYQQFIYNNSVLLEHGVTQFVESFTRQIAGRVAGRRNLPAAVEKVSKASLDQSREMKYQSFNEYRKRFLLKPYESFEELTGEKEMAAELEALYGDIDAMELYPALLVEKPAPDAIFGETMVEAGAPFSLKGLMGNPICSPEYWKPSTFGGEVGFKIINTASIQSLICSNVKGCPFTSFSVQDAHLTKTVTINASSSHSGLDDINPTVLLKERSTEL
Experimental: Test System for Determining the Inhibition of Cyclooxygenase-2 (COX-2)
COX-2 (from sheep placenta) is preincubated with test substance for 10 min at 4° C., then stimulated with arachidonic acid (5 μm) at 25° C. for 10 min. […] Determination is carried out 3 dilutions (10^−7, 10^−6, 10^−5 molar). The PGE2 concentrations are quantified by means of ELISA (see Mitchell J. A. et al. Proc. Nat. Acad. Sci 90: 11693-11697 (1993)).

TNF-α [1] = experiment: Inhibition of LPS-stimulated cytokine secretion in human PBMC (TNF-α); type: cell-based; settings: LPS 1 μg/ml, 24 h, read-out: TNFα, PBMC (IC50 values)
Experimental: (§1) Test System for Determining the Inhibition of LPS-stimulated Cytokine Secretion (TNF-α, IL-1β)
(§2) Human PBMC (peripheral blood mononuclear cells) are preincubated with test substance for 5 min at 37° C., then stimulated with LPS (1 μg/ml) for 24 h at 37° C. The cytokines TNF-α, IL-1β, IL-6 and IL-8 are Determined by means of ELISA (see Blood 75, 40-47 (1990)).

IL-1β [2] = experiment: Inhibition of LPS-stimulated cytokine secretion in human PBMC (IL-1β); type: cell-based; settings: LPS 1 μg/ml, 24 h
Experimental: as §1, §2

TNF-α [3] = experiment: Inhibition of LPS-stimulated cytokine secretion in whole blood (TNF-α); type: cell-based; settings: human whole blood, LPS 1 μg/ml, 4 h; read-out: TNFα, Whole blood method (IC50 values)
Experimental: (§3) Test System for Determining the Inhibition of LPS-stimulated Cytokine Secretion (TNF-α, IL-1β) in Whole Blood
(§4) Fresh, human whole blood from healthy donors is preincubated with test substance for 25 min at 37° C. The cells are stimulated with LPS (1 μg/ml) for 4 h at 37° C. In the plasma supernatant which is isolated by centrifugation, the cytokines TNF-α, IL-1β, IL-6 and IL-8 are quantified by means of ELISA (see Inflamm. Res. 44, 269-274 (1995)).

IL-1β [4] = experiment: Inhibition of LPS-stimulated cytokine secretion in whole blood (IL-1β); type: cell-based; settings: human whole blood, LPS 1 μg/ml, 4 h; read-out: IL-1β, Whole blood method (IC50 values)
Experimental: as §3, §4

T2 sequence (P23219 24-599): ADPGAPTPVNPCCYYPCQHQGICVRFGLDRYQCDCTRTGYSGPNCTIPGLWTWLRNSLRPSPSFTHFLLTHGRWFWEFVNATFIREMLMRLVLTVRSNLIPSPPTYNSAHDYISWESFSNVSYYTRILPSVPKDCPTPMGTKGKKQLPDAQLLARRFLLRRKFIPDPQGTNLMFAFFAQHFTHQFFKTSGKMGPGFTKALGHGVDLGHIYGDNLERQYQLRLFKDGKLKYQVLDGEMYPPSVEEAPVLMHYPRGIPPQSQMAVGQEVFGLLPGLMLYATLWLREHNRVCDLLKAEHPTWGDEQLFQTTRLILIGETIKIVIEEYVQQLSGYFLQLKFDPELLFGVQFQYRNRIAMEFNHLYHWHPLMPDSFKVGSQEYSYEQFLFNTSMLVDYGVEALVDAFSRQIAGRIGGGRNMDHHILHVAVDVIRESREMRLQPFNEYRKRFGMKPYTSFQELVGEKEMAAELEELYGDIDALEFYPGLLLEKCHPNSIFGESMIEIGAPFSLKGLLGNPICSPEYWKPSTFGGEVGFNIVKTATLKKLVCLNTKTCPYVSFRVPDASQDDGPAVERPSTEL

| SMILES | IC50 (5-lipoxygenase (5-LO)) [µM] | IC50 (Cyclooxygenase-1 (COX-1)) [µM] | IC50 (Cyclooxygenase-2 (COX-2)) [µM] | IC50 (TNF-α [1]) [µM] | IC50 (IL-1β [2]) [µM] | IC50 (TNF-α [3]) [µM] | IC50 (IL-1β [4]) [µM] |
| --- | --- | --- | --- | --- | --- | --- | --- |
| NS(=O)(=O)c1ccc(CSc2nc(-c3ccncc3)c(-c3ccc(F)cc3)[nH]2)cc1 [Example 5, 2-[(4-Aminosulfonylphenyl)methylthio]-5-(4-fluorophenyl)-4-(4-pyridyl)imidazole] | 2.8 | 0.038 | 10 | 3.1 | 18 |  |  |
| C[S+]([O-])c1cccc(CSc2nc(-c3ccncc3)c(-c3ccc(F)cc3)[nH]2)c1 (stereo not shown) [Example 9, 5-(4-Fluorophenyl)-2-[(3-methylsulfinylphenyl)methylthio]-4-(4-pyridyl)-1H-imidazole] |  |  |  |  |  | 24 | 1.9 |
| C[S+]([O-])c1ccc(CSc2nc(-c3ccncc3)c(-c3ccc(F)cc3)[nH]2)cc1 (stereo not shown) [Example 2, 5-(4-Fluorophenyl)-2-[(4-methylsulfinyl)benzylthio]-4-(4-pyridyl)imidazole] | 10 |  | 6.3 | 6.8 | 2.3 | 16 | 2.9 |
| CSc1ccc(CCSc2nc(-c3ccncc3)c(-c3ccc(F)cc3)[nH]2)cc1 [Example 6, 2-[2-(4-Methylthiophenyl)ethylthio]-5-(4-fluorophenyl)4-(4-pyridyl)imidazole] | < 0.01 | 6.5 | 3 | 6 | 58 |  |  |
| CS(=O)(=O)c1ccc(CSc2nc(-c3ccncc3)c(-c3ccc(F)cc3)[nH]2)cc1 [Example 3, 5-(4-Fluorophenyl)-2-[(4-methylsulfonyl)benzylthio]-4-(4-pyridyl)imidazole] | 0.8 |  |  | 4 | > 100 | 19 | 1.2 |
| C[S+]([O-])c1ccccc1CSc1nc(-c2ccncc2)c(-c2ccc(F)cc2)[nH]1 (stereo not shown) [Example 10, 5-(4-Fluorophenyl)-2-[(2-methylsulfinylphenyl)methylthio]-4-(4-pyridyl)-1H-imidazole] |  |  |  |  |  | 48 | 4 |
| CS(=O)(=O)c1ccc(CCSc2nc(-c3ccncc3)c(-c3ccc(F)cc3)[nH]2)cc1 [Example 7, 5-(4-Fluorophenyl)-2-[2-(4-methylsulfonylphenyl)ethylthio]-4-(4-pyridyl)imidazole] |  |  |  | 14 | 21 |  |  |
| C[S+]([O-])c1ccc(O)c(CSc2nc(-c3ccncc3)c(-c3ccc(F)cc3)[nH]2)c1 (stereo not shown) [Example 16, 2-[(2-Hydroxy-5-methylsulfinylphenyl)methylthio]-5-(4-fluorophenyl)-4-(4-pyridyl)-1H-imidazole] |  |  |  | 4.2 | 0.64 | 76 | 13 |
| C[S+]([O-])c1cc(CSc2nc(-c3ccncc3)c(-c3ccc(F)cc3)[nH]2)ccc1O (stereo not shown) [Example 12, 5-(4-Fluorophenyl)-2-[(4-hydroxy-3-methylsulfinylphenyl)methylthio]-4-(4-pyridyl)-1H-imidazole] |  |  |  |  |  | 9 | 12.1 |
| CS(=O)(=O)c1ccc(-c2nc(-c3ccc(F)cc3)c(-c3ccncc3)[nH]2)cc1 [Reference B, reference compound] |  |  |  |  | 7.5 |  |  |
| NS(=O)(=O)c1ccc(CCSc2nc(-c3ccncc3)c(-c3ccc(F)cc3)[nH]2)cc1 [Example 4, 2-[2-(4-Aminosulfonylphenyl)ethylthio]-5-(4-fluorophenyl)-4-(4-pyridyl)imidazole] | 0.085 | 2.2 | 7 | 3.3 | 9.3 |  |  |
| CSc1ccc(CSc2nc(-c3ccncc3)c(-c3ccc(F)cc3)[nH]2)cc1 [Example 1, 5-(4-Fluorophenyl)-2-[(4-methylthio)benzylthio]-4-(4-pyridyl)imidazole] | 0.065 | 3.4 | 6.1 | 10 | > 100 | 30 | 30 |

Source: patent US6432988B1, “2-arylalkylthio -imidazoles, 2-arylalkenyl -thio -imidazoles and 2-arylalkinyl -thio -imidazoles as anti -inflammatory substances and substances inhibiting the release of cytokine” (Merckle GmbH, priority 1998, dated 2002)
